In patent publication US7544664B2, “Sequences facilitating penetration of a substance of interest” (priority 2003, dated 2009):
Each block holds one compound with its values, some of them ahead of it. Where a SMILES comes first, the peptide text is derived from it. The star is where a group is joined. X1 = C[C@@H]1[C@H](O)[C@@H](C)/C=C/C=C/C=C/C=C/C=C/C=C/C=C/[C@H](O[C@@H]2O[C@H](C)[C@@H](O)[C@H](NC(=O)CCCCCN3C(=O)CC(*)C3=O)[C@@H]2O)C[C@@H]2O[C@](O)(C[C@@H](O)C[C@@H](O)[C@H](O)CC[C@@H](O)C[C@@H](O)CC(=O)O[C@H]1C)C[C@H](O)[C@H]2C(=O)O; X3 = CC(=O)O[C@H]1C(=O)[C@@]2(C)[C@H]([C@H](OC(=O)c3ccccc3)[C@]3(O)C[C@H](OC(=O)[C@H](OC(=O)CCCCCN4C(=O)CC(*)C4=O)[C@@H](NC(=O)c4ccccc4)c4ccccc4)C(C)=C1C3(C)C)[C@]1(OC(C)=O)CO[C@@H]1C[C@@H]2O

What was measured:
[1] = test system: HT29: human colon carcinoma; assay: cells; format: cell-based; details: Homo sapiens, HT-29, 48 h, read-out: IC50 values
Experimental: HT29: human colon carcinoma, low P-gp expression (origin: ATCC #HTB-38)
(§1) Viability assays were performed. Briefly, cells are seeded in 96-well plates and incubated with increasing concentrations of drugs (i) for 1 hour then cells are rinsed and incubated with fresh medium without drugs for 48 hours, or (ii) for 48 hours. A WST-1 test (from Roche) was performed and IC50 values (drug concentration that inhibits 50% of cell viability) were estimated from sigmoidal regressions.
(§2) DPV15-E-Chl conjugate was compared to non-conjugated Chl and 5FUra for the inhibition of in vitro cell proliferation of human carcinoma and leukemia cells. We calculated IC50 values=drug concentration that inhibits 50% of cell viability.

[2] = test system: K562: human chronic myelogenous leukemia; assay: Viability assay (WST-1); format: cell-based; details: Homo sapiens
Experimental: K562: human chronic myelogenous leukemia (CML) (origin: ATCC #CCL-243).
as §1, §2

[3] = test system: HCT116: human colon carcinoma; assay: cells; format: cell-based; details: Homo sapiens, HCT-116, 48 h, read-out: IC50 values
Experimental: HCT116: human colon carcinoma (origin: ATCC #CCL-247)
as §1, §2

[4] = Stability in H2O+0.1% TFA overnight at room temperature; format: physicochemical; details: protected from light, Chl 0.1 mg/ml, DPV15-E-Chl 0.5 mg/ml in H2O+0.1% TFA
Experimental: After overnight incubation at room temperature and protected from light, both Chl (0.1 mg/ml in H2O+0.1% TFA) and DPV15-E-Chl (0.5 mg/ml in H2O+0.1% TFA) are degraded (50% degradation).

[5] = Solubility in water / aqueous solutions
[6] = test system: OVCAR-3: human ovary carcinoma; assay: cells; format: cell-based; details: OVCAR-3 ovary carcinoma, 1 h incubation + 72 h post-incubation
Experimental: OVCAR-3: human ovary carcinoma (origin: ATCC #HTB-161)
as §1, with “drugs” for “drugs (i)”, “72” for “48 hours, or (ii) for 48”
(§3) We tested the inhibition of in vitro cell proliferation of human carcinoma cells, and we calculated IC50 values=drug concentration that inhibits 50% of cell viability.

[7] = test system: NCI-H1299: human non small cell lung carcinoma; assay: cells; format: cell-based; details: H1299 NSCLC, 1 h incubation + 72 h post-incubation
Experimental: NCI-H1299: human non small cell lung carcinoma (NSCLC) (origin: ATCC #CRL-5803)
as §1, with “drugs” for “drugs (i)”, “72” for “48 hours, or (ii) for 48”
as §3

[8] = test system: MES-SA/Dx5: human uterine sarcoma, resistant to paclitaxel; details: read-out: IC50 values, 1 h incubation + 72 h post-incubation
[9] = test system: HCT116 human colorectal carcinoma; assay: In vivo anti-tumor activity of DPV7b-doxorubicin conjugate; parameters: species or system Nude mice; details: Table 15, Q2D3×3W
Experimental: Nude mice are injected with 10^7 HCT116 cells (HCT116 human colorectal carcinoma cell line) intradermically in the right flank. Treatments were performed on established solid tumors (tumors size is about 80 to 90 mm^3) at Day 3. Mice were randomized in different groups (equivalent tumors size), 6 mice by group.

[10] = test system: HCT116 human colorectal carcinoma; assay: In vivo anti-tumor activity, first experiment (DPV15-doxorubicin); parameters: species or system nude mice; details: Table 13, Q2D3×3W
Experimental: (§4) Mice: Athymic (nu/nu) nude mice, female, NMRI-nu (nu/nu)-Nude Tumor model: HCT116 human colorectal carcinoma (ATCC Number: CCl-247) Experiment has been performed on tumor-bearing mice. The HCT116 tumors have been established by intradermal injection of 100 μl of the cell suspension (10^7 cells/0.1 mL) on the right flank of the mouse. […] After complete dissolution a solution of 0.9% NaCl for injection (Cooper) 0.9% was added.

[11] = test system: HCT116 human colorectal carcinoma; assay: In vivo anti-tumor activity, second experiment (DPV15b-doxorubicin); parameters: species or system nude mice; details: Q2D3×3W
Experimental: as §4

[12] = Single dose toxicity, intravenous injection; format: in vivo, mice
Experimental: The single dose toxicity of the DPV15-AmB conjugate was assessed by mortality and/or body weight loss after a single dose intravenous injection. Mice were treated with DPV15-AmB 2.57, 3.68, 5.52, 7.36, 9.2, 18.4 and 36.8 mg/kg with vehicle (NaCl/H2O 9/1 v/v). These different doses correspond to 0.7, 1, 1.5, 2, 2.5, 5 and 10 mg/kg of AMB respectively. The dose of 1 mg/kg corresponds to the MTD of AmB exposed in the literature (Tabosa Do Egito et al., In-vitro and In-vivo evaluation of a new amphothericin B emulsion-based delivery system. J Antimicrob Vhemother. 1996 September; 38(3):485-97).

[13] = test system: Candida albicans (ATCC 90028); assay: Lethal murine candidiasis model; format: in vivo, mice; details: single i.v. 3 hours after inoculation
Experimental: Test substances (DPV15-AmB and AmB (Fungizone)) and vehicule control were administrated i.v. with doses ranging from 0.25 mg/kg to 2.5 mg/kg AmB equivalent to test animals 3 hours after the fungal inoculation. Mortality was recorded once daily for 8 days.

SMILES: O=C(O)CCCc1ccc(N(CCCl)CCCl)cc1 [Chl, Chlorambucil]
IC50 [1]: 250 ± 70 µM
IC50 ([2]; 1 h incubation + 48 h): > 500 µM
IC50 ([2]; 48 h incubation): 250 ± 70 µM
IC50 [3]: 200 ± 70 µM
degradation after overnight incubation [4]: 50%
Solubility in water / aqueous solutions [5]: not soluble

SMILES: CC(=O)O[C@H]1C(=O)[C@@]2(C)[C@H]([C@H](OC(=O)c3ccccc3)[C@]3(O)C[C@H](OC(=O)[C@H](OC(=O)CCCCCN4C(=O)CC(SC[C@H](NC(=O)[C@H](CCCNC(=N)N)NC(=O)[C@H](CO)NC(=O)[C@H](CCC(N)=O)NC(=O)[C@H](CCCNC(=N)N)NC(=O)[C@H](CCC(=O)O)NC(=O)[C@H](CCCNC(=N)N)NC(=O)[C@H](CCCNC(=N)N)NC(=O)[C@H](CC(C)C)NC(=O)[C@H](CCCNC(=N)N)NC(=O)[C@H](CO)NC(=O)[C@H](CCC(N)=O)NC(=O)[C@H](CCCNC(=N)N)NC(=O)[C@H](CCC(=O)O)NC(=O)[C@H](CCCNC(=N)N)NC(=O)[C@H](CCCNC(=N)N)NC(=O)[C@@H](N)CC(C)C)C(=O)O)C4=O)[C@@H](NC(=O)c4ccccc4)c4ccccc4)C(C)=C1C3(C)C)[C@]1(OC(C)=O)CO[C@@H]1C[C@@H]2O (stereo partly shown) [DPV15-E-PTX] (H-LRRERQSRLRRERQSRC(X3)-OH)
IC50 [6]: 0.37 ± 0.05 µM
IC50 [7]: 4.3 ± 2.7 µM
IC50 [8]: 33 ± 5.7 µM
solubility ([5]; water): ≥ 10000 µg/mL

IC50 ([6]; Homo sapiens): 7.3 ± 4.2 µM
IC50 ([7]; Homo sapiens, NCI-H1299): 0.62 ± 0.32 µM
SMILES: COc1cccc2c1C(=O)c1c(O)c3c(c(O)c1C2=O)C[C@@](O)(C(=O)CO)C[C@@H]3O[C@H]1C[C@H](N)[C@H](O)[C@H](C)O1 [Doxorubicin]
Tumor doubling time ([9]; 3.5 μmol/kg i.v.): 10.2 days
Tumor growth delay ([9]; 3.5 μmol/kg i.v.): 21.20 days
Tumor growth delay ([9]; 5 μmol/kg i.v.): 26.40 days
Tumor doubling time ([9]; 6.5 μmol/kg i.v.): 22.9 days
Tumor growth delay ([9]; 6.5 μmol/kg i.v.): 35.29 days
Tumor doubling time ([10]; 3.5 μmol/kg i.v.): 10.20 days
Tumor growth delay ([10]; 3.5 μmol/kg i.v.): 21.20 days
Tumor growth delay ([10]; 5 μmol/kg i.v.): 26.40 days
Tumor doubling time ([10]; 6.5 μmol/kg i.v.): 22.90 days
Tumor growth delay ([10]; 6.5 μmol/kg i.v.): 35.29 days
mice body weight loss ([11]; 7 μmol/kg i.v.): > 20%
Tumor growth delay ([11]; Table 14, 5 μmol/kg i.v.): 27.86 days
Tumor growth delay ([11]; Table 14, 6 μmol/kg i.v.): 29.98 days
Tumor doubling time ([11]; Table 14, 7 μmol/kg i.v.): 13.38 days
Tumor growth delay ([11]; Table 14, 7 μmol/kg i.v.): 35.16 days

SMILES: CC(C)C[C@H](NC(=O)[C@H](CCCNC(=N)N)NC(=O)[C@H](CO)NC(=O)[C@H](CCC(N)=O)NC(=O)[C@H](CCCNC(=N)N)NC(=O)[C@H](CCC(=O)O)NC(=O)[C@H](CCCNC(=N)N)NC(=O)[C@H](CCCNC(=N)N)NC(=O)[C@@H](N)CC(C)C)C(=O)N[C@@H](CCCNC(=N)N)C(=O)N[C@@H](CCCNC(=N)N)C(=O)N[C@@H](CCC(=O)O)C(=O)N[C@@H](CCCNC(=N)N)C(=O)N[C@@H](CCC(N)=O)C(=O)N[C@@H](CO)C(=O)N[C@@H](CCCNC(=N)N)C(=O)N[C@@H](CSC1CC(=O)N(CCCCCC(=O)N[C@@H]2[C@H](O)[C@H](O[C@H]3/C=C/C=C/C=C/C=C/C=C/C=C/C=C/[C@H](C)[C@@H](O)[C@@H](C)[C@H](C)OC(=O)C[C@H](O)C[C@H](O)CC[C@@H](O)[C@H](O)C[C@H](O)C[C@]4(O)C[C@H](O)[C@@H](C(=O)O)[C@H](C3)O4)O[C@H](C)[C@H]2O)C1=O)C(=O)O (stereo partly shown) [DPV15-AmB] (H-LRRERQSRLRRERQSRC(X1)-OH)
mortality ([12]; 18.4 mg/kg, 24 hours after the injection): 1 mouse was found dead
loss of initial body weight ([12]; 18.4 mg/kg, two surviving mice, 24 hours after the injection): about 12%
Acute lethal toxicity ([12]; 36.8 mg/kg (10 mg/kg of AMB), single i.v.): observed
effect on the body weight at Day 28 ([12]; 2.57, 3.68, 5.52, 7.36 and 9.2 mg/kg, single i.v.): no effect
MTD at 28 day ([12]; mouse, in vivo, iv, single i.v., conjugate dose, read-out: maximal tolerated dose): 9.2 to 18.4 mg/kg
survival on day 8 ([13]; 0.5 mg/kg AmB equivalent): 50%
survival on day 8 ([13]; 1 mg/kg AmB equivalent): 50%
